Measured values taken from patent US12697477B2, “Device for delivery of antimicrobial agent into a medical device” (ICU Medical, Inc., priority 2011, dated 2026).

Key:
Format in all cases: cell-based
[1] = test system: infection-causing organisms; test: Laboratory testing of the coated elongate member in standard hemodialysis catheters; conditions: 250 μg on the elongate member; catheters containing saline, heparin-saline, or saline with 4% sodium citrate
Method: The safety profile of the invention can be enhanced by limiting the amount of chlorhexidine acetate available to enter the bloodstream, the preferred maximum amount of chlorhexidine acetate on the elongate member is 2000 μg, more preferred is 1000 μg, and most preferred is 350 μg.

[2] = test system: Candida albicans, Pseudomonas aeruginosa, Staphylococcus aureus, and Escherichia coli; test: Laboratory testing of elongate members in catheters under a variety of lock solutions and challenge organisms; conditions: lock solutions saline, heparinized-saline, 4% sodium citrate solution, human serum
Method: The minimum amount of antimicrobial agent on elongate member 33 was determined through laboratory testing in which elongate members were placed into catheters under a variety of lock solutions and challenge organisms. The type of lock solution was varied among saline, heparinized-saline, 4% sodium citrate solution, and human serum. A variety of challenge organisms were used, such as Candida albicans, Pseudomonas aeruginosa, Staphylococcus aureus, and Escherichia coli.

[3] = test system: Candida albicans; test: Coated cap luer against Candida albicans seeded within the catheter's luer region; conditions: 50 μg coated on the cap's luer portion
Method: For instance, if using a chlorhexidine based antimicrobial, approximately 50 μg of chlorhexidine acetate can be effective in some embodiments. […] The caps containing the coated luers killed all of the Candida albicans that were seeded within the catheter's luer region. Within the same experiment, the Candida albicans remained viable when uncoated caps were used. Greater than 5 μg chlorhexidine acetate on the luer region is effective; 10 μg to 300 μg is preferred, and 30 μg to 80 μg is most preferred.

CC(=O)O.CC(=O)O.NC(=N\CCCCCC/N=C(N)/N=C(\N)Nc1ccc(Cl)cc1)/N=C(\N)Nc1ccc(Cl)cc1 [chlorhexidine acetate]
reduction in number of infection-causing organisms [1]: > 10,000 × | organisms killed in the catheter versus amount on the elongate member [2]: dose response | kill of Candida albicans seeded within the catheter's luer region [3]: killed all
